BindingDB's records for doi:10.1016/j.chembiol.2017.03.002 (Jagiellonian University, 2017)

Target: T1, Ubiquitin carboxyl-terminal hydrolase 2 [258-605] (Homo sapiens, UniProt O75604)
T1 construct: 258-605
T1 sequence (O75604 whole entry): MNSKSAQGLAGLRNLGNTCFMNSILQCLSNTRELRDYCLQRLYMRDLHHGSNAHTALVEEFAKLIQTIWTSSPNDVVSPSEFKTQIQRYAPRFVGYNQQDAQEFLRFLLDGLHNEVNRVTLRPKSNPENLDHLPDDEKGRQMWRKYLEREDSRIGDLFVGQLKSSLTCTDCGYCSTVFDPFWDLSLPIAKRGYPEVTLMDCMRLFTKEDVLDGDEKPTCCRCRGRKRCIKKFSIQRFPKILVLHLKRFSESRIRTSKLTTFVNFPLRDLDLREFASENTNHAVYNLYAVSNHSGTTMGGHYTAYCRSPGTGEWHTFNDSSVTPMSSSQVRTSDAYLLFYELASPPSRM
Assay: Ub-AMC-Hydrolysis Assay
Protocol: The assays were performed using Infinite 200 PRO - Tecan plate reader and 96-well, black Greiner microplates in a […] reaction volume. […]

- IC50: 5.8 µM
Compound: COC(=O)C1CC[C@@]2(C)[C@H](CC[C@@H]3[C@@H]2CC[C@]2(C)[C@@H]([C@H](C)CCC(=O)O)CC[C@@H]32)C1 (stereo partly specified) [LCAE]
